The text below walks through data of PubChem BioAssay (NCI).

Molecules are shown by their SMILES.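 All cell lines were grown in 96-well plates and treated with compound for 48 hours. GI50 marks 50% less growth. The concentration for full growth arrest is given as TGI.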

The first assay has as its system M14 melanoma. The experiment in a line: inhibition of tumour cell growth, NCI panel, 48 h.
As for `COc1ccc(NC(=O)CC/C(CC(=O)c2ccco2)=N/NC(=O)C(N)=O)cc1`, the TGI is > 100 µM.

Regarding `NC(CCCC(N)P(=O)(O)O)P(=O)(O)O` (configuration not stated), the TGI was > 100 µM.

Regarding `CCOC(=O)[CH-]C(=O)C12CC3CC(CC(C3)C1)C2.CCOC(=O)[CH-]C(=O)C12CC3CC(CC(C3)C1)C2.CC[O-].CC[O-].[Ti+4]`, the GI50 is > 100 µM and the TGI was > 100 µM.

`CC(=O)C1C(c2ccccc2)C2(C)OC(=O)C(C#N)C12C` (configuration not stated): the TGI was > 100 µM.

Consider `C[C@]12CC=CC(=O)[C@@]1(C)CCC(=O)C2`, for which the TGI was > 100 µM.

`CC(=O)Oc1cc2c(cc1OC(C)=O)C1(C)CCC2(C)c2cc(OC(C)=O)c(OC(C)=O)cc21` gave a TGI of 90.5 µM.

Regarding `CCCC1(CC(=O)O)OCCc2c1[nH]c1ccccc21` (configuration not stated), the TGI is > 100 µM.

`COc1ccc2nc3cc(Cl)ccc3c(Sc3ccc([N+](=O)[O-])cc3C)c2c1`: the TGI is > 100 µM.

In the next assay the test system is MALME-3M melanoma. The assay can be described thus: inhibition of tumour cell growth, NCI panel, 48 h.
Turning to `CCC1=CCN(c2cc(C)ccn2)OC1c1ccc(OC)cc1` (configuration not stated), the TGI worked out at 84.1 µM.

`CC(=O)Oc1c(C)c(-c2ccccc2)c(C)c(-c2ccccc2)c1C(=S)c1ccccc1`: the TGI was > 100 µM.

On to `N#CCC(=O)N/N=C1/C(=O)N(c2ccc(Cl)cc2)C(=O)C(=O)C1c1nc2ccccc2s1` (configuration not stated), for which the TGI is > 100 µM.

As for `CCCCCCCCCCCC(=O)OCCOCCOCCOCCOCCOC(=O)CCCCCCCCCCC`, the TGI is > 100 µM.

As for `COc1ccc(C=O)cc1O[Si](C)(C)C(C)(C)C`, the TGI was > 100 µM.

In the case of `CC1(O)C(C)(O)C2(C)O[Te]3(OC12C)OC1(C)C(C)(O)C(C)(O)C1(C)O3` (configuration not stated), the TGI is > 100 µM.

As to `O=C1COc2cc(NC(=S)Nc3ccccc3)ccc2N1`, the TGI is > 100 µM.

Turning to `O=S(=O)(C1=CC(S(=O)(=O)c2ccccc2)CN(Cc2ccccc2)C1c1cccc2ccccc12)c1ccccc1` (configuration not stated), the TGI was > 69 µM.

`O=C1C=C(Nc2ccccc2C(=O)CC(=O)C(=O)Nc2cccc([N+](=O)[O-])c2)c2ccccc2C1=O` yielded a TGI of 46.7 µM.

`O=C(Nc1ccc(Cl)cc1)C1C(=O)C(=O)N(c2ccc(Cl)cc2)C1=O` (configuration not stated): the TGI was > 100 µM.

Take `CCC[CH2][Sn]([CH2]CCC)([O]C(=O)CN)[O]C(=O)CN`: the GI50 was 6.1 µM and the TGI is 41.2 µM.

As for `O=C(Nc1ccc(C(F)(F)F)cc1[N+](=O)[O-])C(=O)C1NC(=S)NC1=O` (configuration not stated), the TGI was > 100 µM.

`COc1cc(NCC(C#N)C#N)ccc1N=Nc1ccc(Cl)cc1` gave a TGI of 71.4 µM.

Regarding `CC(=O)c1ccc(NC(=O)/C(CC(=O)c2sc(-c3cccnc3)nc2C)=N/NC(N)=O)cc1`, the TGI was > 100 µM.

As to `Cc1ccc(S(=O)(=O)OC2CC=CC2)cc1`, the TGI is > 100 µM.

`C=CC[P@]1(=O)O[C@H](c2ccccc2)[C@H](C)N1C`: the TGI was > 100 µM.

Take `O=C(Nc1cccc(O)c1)C(=O)C1C(=O)NC(=S)NC1=O`: the TGI was > 100 µM.

In the case of `O=C1N/C(=C\[N+](=O)[O-])c2ccccc21`, the TGI was > 100 µM.

For the molecule `COC(=O)C(=O)CC(=O)CCn1[nH]c(=O)c(Cl)c(Cl)c1=O`, the TGI was > 100 µM.

In the case of `OCC12C=CC(C1)c1ccccc12` (configuration not stated), the TGI is > 100 µM.

For `CCOC1C(Br)Cn2c(=O)c3cc4ccccc4cc3c(=O)n2C1C` (configuration not stated), the TGI was > 100 µM.

Take `COc1ccc(NC(=O)CC/C(CC(=O)c2ccco2)=N/NC(=O)C(N)=O)cc1`: the TGI was > 100 µM.

Turning to `NC(CCCC(N)P(=O)(O)O)P(=O)(O)O` (configuration not stated), the TGI was > 100 µM.

Turning to `CCOC(=O)[CH-]C(=O)C12CC3CC(CC(C3)C1)C2.CCOC(=O)[CH-]C(=O)C12CC3CC(CC(C3)C1)C2.CC[O-].CC[O-].[Ti+4]`, the GI50 was > 100 µM and the TGI was > 100 µM.

For the molecule `CC(=O)C1C(c2ccccc2)C2(C)OC(=O)C(C#N)C12C` (configuration not stated), the TGI is > 100 µM.

As to `C[C@]12CC=CC(=O)[C@@]1(C)CCC(=O)C2`, the TGI is > 100 µM.

In the case of `CC(=O)Oc1cc2c(cc1OC(C)=O)C1(C)CCC2(C)c2cc(OC(C)=O)c(OC(C)=O)cc21`, the TGI is > 100 µM.

Take `CCCC1(CC(=O)O)OCCc2c1[nH]c1ccccc21` (configuration not stated): the TGI was > 100 µM.

Turning to `COc1ccc2nc3cc(Cl)ccc3c(Sc3ccc([N+](=O)[O-])cc3C)c2c1`, the TGI was > 100 µM.

A further assay deals with MDA-MB-231 breast. The experiment in a line: inhibition of tumour cell growth, NCI panel, 48 h.
Take `COc1ccc2c(c1)C(=O)CCc1cc(OC)c(OC)c(OC)c1-2`: the GI50 was < 0.01 µM and the TGI was > 100 µM.

In the case of `COc1ccc2c(c1)OC1=C(C(=O)OC1)C2c1cc(OC)c2c(c1)OCCO2` (configuration not stated), the GI50 was 0.156 µM and the TGI is > 94.6 µM.

On to `CCN(CC)CCNC(Cc1ccccc1)c1ccc(OCc2ccccc2)cc1` (configuration not stated), for which the GI50 was 1.92 µM and the TGI was 6.65 µM.

The test system of another assay is OVCAR-4 ovarian. The experiment in a line: inhibition of tumour cell growth, NCI panel, 48 h.
In the case of `CCC1=CCN(c2cc(C)ccn2)OC1c1ccc(OC)cc1` (configuration not stated), the TGI was > 100 µM.

`N#CCC(=O)N/N=C1/C(=O)N(c2ccc(Cl)cc2)C(=O)C(=O)C1c1nc2ccccc2s1` (configuration not stated): the TGI is > 100 µM.

Take `CCCCCCCCCCCC(=O)OCCOCCOCCOCCOCCOC(=O)CCCCCCCCCCC`: the TGI was > 100 µM.

In the case of `COc1ccc(C=O)cc1O[Si](C)(C)C(C)(C)C`, the TGI is > 100 µM.

Regarding `CC1(O)C(C)(O)C2(C)O[Te]3(OC12C)OC1(C)C(C)(O)C(C)(O)C1(C)O3` (configuration not stated), the TGI was determined as 77.9 µM.

For the molecule `O=C1COc2cc(NC(=S)Nc3ccccc3)ccc2N1`, the TGI was > 100 µM.

With `O=S(=O)(C1=CC(S(=O)(=O)c2ccccc2)CN(Cc2ccccc2)C1c1cccc2ccccc12)c1ccccc1` (configuration not stated), the TGI is > 69 µM.

`O=C1C=C(Nc2ccccc2C(=O)CC(=O)C(=O)Nc2cccc([N+](=O)[O-])c2)c2ccccc2C1=O`: the TGI is > 100 µM.

For `CCC[CH2][Sn]([CH2]CCC)([O]C(=O)CN)[O]C(=O)CN`, the GI50 is > 100 µM and the TGI was > 100 µM.

`COc1ccc2c(c1)C(=O)CCc1cc(OC)c(OC)c(OC)c1-2`: the GI50 was 0.818 µM and the TGI is > 100 µM.

For the molecule `O=C(Nc1ccc(C(F)(F)F)cc1[N+](=O)[O-])C(=O)C1NC(=S)NC1=O` (configuration not stated), the TGI was > 100 µM.

As to `COc1cc(NCC(C#N)C#N)ccc1N=Nc1ccc(Cl)cc1`, the TGI was > 100 µM.

For `CC(=O)c1ccc(NC(=O)/C(CC(=O)c2sc(-c3cccnc3)nc2C)=N/NC(N)=O)cc1`, the TGI is > 100 µM.

In the case of `Cc1ccc(S(=O)(=O)OC2CC=CC2)cc1`, the TGI is > 100 µM.
